Measurements: ChEMBL document CHEMBL4359816, “Discovery and Optimization of Quinolinone Derivatives as Potent, Selective, and Orally Bioavailable Mutant Isocitrate Dehydrogenase 1 (mIDH1) Inhibitors” (J Med Chem, 2019)

Columns and labels:
[1] = Metabolic stability in human liver microsomes assessed as compound remaining after 30 mins; format: ADME, Microsome; details: read-out: Stability
[2] = Metabolic stability in mouse liver microsomes assessed as compound remaining after 30 mins; format: ADME, Microsome; details: read-out: Stability
[3] = biological target: T1, Isocitrate dehydrogenase [NADP] cytoplasmic (Homo sapiens, UniProt O75874, R132C); test: Inhibition of human Myc-DDK-tagged IDH1 R132C mutant assessed as reduction in NADPH consumption pre-incubated for 15 mins followed by alpha-ketoglutarate substrate and NADPH addition after 45 mins by diaphorase and resazurin dye based assay
[4] = biological target: Isocitrate dehydrogenase [NADP] cytoplasmic (Homo sapiens, UniProt O75874); test: Inhibition of wild-type IDH1 (unknown origin) by NADPH fluorescence based assay
[5] = biological target: T1, Isocitrate dehydrogenase [NADP] cytoplasmic; test: Inhibition of IDH1 R132C mutant in human HCT116 cells assessed as reduction in 2-HG levels after 24 hrs by RapidFire high-throughput mass spectrometry assay; format: cell-based
[6] = biological target: T1, Isocitrate dehydrogenase [NADP] cytoplasmic; test: Inhibition of human Myc-DDK-tagged IDH1 R132C mutant expressed in human U87MG cells assessed as reduction in 2-HG levels after 24 hrs by RapidFire high-throughput mass spectrometry assay; format: cell-based
[7] = Metabolic stability in rat liver microsomes assessed as compound remaining after 30 mins; format: ADME, Microsome; details: read-out: Stability
[8] = biological target: Isocitrate dehydrogenase [NADP] cytoplasmic (Homo sapiens, UniProt O75874, R132G); test: Inhibition of human Myc-DDK-tagged IDH1 R132G mutant expressed in human U87MG cells assessed as reduction in 2-HG levels after 24 hrs by RapidFire high-throughput mass spectrometry assay; format: cell-based
[9] = biological target: Isocitrate dehydrogenase [NADP] cytoplasmic (Homo sapiens, UniProt O75874, R132L); test: Inhibition of human Myc-DDK-tagged IDH1 R132L mutant expressed in human U87MG cells assessed as reduction in 2-HG levels after 24 hrs by RapidFire high-throughput mass spectrometry assay; format: cell-based
[10] = Permeability of the compound by PAMPA; format: ADME; details: read-out: permeability
[11] = Apparent permeability of the compound across apical side to basolateral side in human Caco2 cells; format: ADME, cell-based; details: Caco-2
[12] = Efflux ratio of apparent permeability from basolateral side to apical side over apical side to basolateral side in human Caco2 cells; format: ADME, cell-based; details: Caco-2
[13] = Apparent permeability from basolateral side to apical side in MDCK cells; format: ADME, cell-based, Canis lupus familiaris; details: dog
[14] = Efflux ratio of apparent permeability from basolateral side to apical side over apical side to basolateral side in MDCK cells; format: ADME, cell-based, Canis lupus familiaris; details: dog
[15] = tested on: MDR1 (P-gp); test: Apparent permeability from apical side to basolateral side in MDCK cells harboring MDR1 (unknown origin); format: ADME, cell-based, Canis lupus familiaris; details: dog
[16] = tested on: MDR1 (P-gp); test: Apparent permeability from basolateral side to apical side in MDCK cells harboring MDR1 (unknown origin); format: ADME, cell-based, Canis lupus familiaris; details: dog
[17] = tested on: MDR1 (P-gp); test: Efflux ratio of apparent permeability from basolateral side to apical side over apical side to basolateral side in MDCK cells harboring MDR1 (unknown origin); format: ADME, cell-based, Canis lupus familiaris; details: dog
[18] = biological target: ATP-dependent translocase ABCB1 (Homo sapiens, UniProt P08183); test: Substrate activity at Pgp (unknown origin) assessed as net efflux ratio by measuring ratio of efflux ratio in MDCK cells harboring MDR1 (unknown origin) to efflux ratio in MDCK cells; format: ADME, cell-based
[19] = Protein binding in human plasma; format: ADME, cell-free; details: read-out: PPB (converted)
[20] = Protein binding in dog plasma; format: ADME, cell-free, Canis lupus familiaris; details: read-out: PPB (converted)
[21] = Octanol/aqueous buffer partition coefficient, log D of the compound at pH 7.4; format: physicochemical
[22] = Intrinsic clearance in human hepatocytes; format: ADME, cell-based, Hepatocyte; details: read-out: CLH
[23] = Half-life in rat at 1 mg/kg, iv or 5 mg/kg, po; format: ADME, organism-based; details: in vivo
[24] = Cmax in rat at 1 mg/kg, iv or 5 mg/kg, po; format: ADME, organism-based; details: in vivo
[25] = Total AUC (infinity) in rat at 1 mg/kg, iv or 5 mg/kg, po; format: ADME, organism-based; details: in vivo
[26] = Clearance in rat at 1 mg/kg, iv or 5 mg/kg, po; format: ADME, organism-based; details: in vivo
[27] = Half-life in mouse at 1 mg/kg, iv or 5 mg/kg, po; format: ADME, organism-based; details: in vivo
[28] = Total Cmax in mouse at 1 mg/kg, iv or 5 mg/kg, po; format: ADME, organism-based; details: in vivo
[29] = Total AUC (infinity) in mouse at 1 mg/kg, iv or 5 mg/kg, po; format: ADME, organism-based; details: in vivo
[30] = fAUC (infinity) in mouse at 1 mg/kg, iv or 5 mg/kg, po; format: ADME, organism-based; details: in vivo
[31] = Oral bioavailability in mouse at 5 mg/kg; format: ADME, organism-based; details: in vivo
[32] = Total AUC (infinity) in dog at 0.5 mg/kg, iv; format: ADME, organism-based, Canis lupus familiaris; design: dose 0.5 mg/kg, time AUCmax, route intravenous; details: in vivo
[33] = Free drug concentration in plasma of po dosed BALB/c nude mouse xenografted with human HCT116 harboring R132C mutant administered at 12 hrs intervals and measured after 4 to 24 hrs post last dose; format: ADME, organism-based; details: in vivo
[34] = tested on: Mus musculus; format: functional; details: BALB/c, HCT-116, po
[35] = tested on: Mus musculus; test: In vivo inhibition of IDH1 R132C mutant in human HCT116 cells xenografted in po dosed BALB/c nude mouse assessed as reduction in tumor 2-HG level administered at 12 hrs intervals and measured up to 24 hrs post last dose by LC-MS analysis; format: functional
[36] = tested on: Mus musculus; format: functional; details: BALB/c, HCT-116, po; remark: listed apart in the source
[37] = biological target: CYP2D6 (Homo sapiens, UniProt P10635); test: Inhibition of CYP2D6 (unknown origin) at 10 uM relative to control; format: ADME
[38] = biological target: CYP2C9 (Homo sapiens, UniProt P11712); test: Inhibition of CYP2C9 (unknown origin) at 10 uM relative to control; format: ADME
[39] = biological target: CYP2C19 (Homo sapiens, UniProt P33261); test: Inhibition of CYP2C19 (unknown origin) at 10 uM relative to control; format: ADME
[40] = biological target: CYP1A2 (Homo sapiens, UniProt P05177); test: Inhibition of CYP1A2 (unknown origin) at 10 uM relative to control; format: ADME
[41] = biological target: T2, Cytochrome P450 3A4 (Homo sapiens, UniProt P08684); test: Time dependent inhibition of CYP3A4 (unknown origin) at <5 uM using midazolam as substrate; format: ADME
[42] = biological target: T2, Cytochrome P450 3A4; test: Time dependent inhibition of CYP3A4 (unknown origin) at <5 uM pre-incubated for 30 mins followed by midazolam substrate addition in absence of NADPH; format: ADME
[43] = biological target: T2, Cytochrome P450 3A4; test: Time dependent inhibition of CYP3A4 (unknown origin) at <5 uM using testosterone as substrate; format: ADME
[44] = biological target: T2, Cytochrome P450 3A4; test: Time dependent inhibition of CYP3A4 (unknown origin) at <5 uM pre-incubated for 30 mins followed by testosterone substrate addition in presence of NADPH; format: ADME
[45] = biological target: alpha1 adrenergic receptor (Homo sapiens, UniProt P35348); test: Displacement of [3H] prazosin from human alpha1 adrenergic receptor at 1 uM measured after 60 mins by scintillation counting method relative to control; details: probe [3H] prazosin
[46] = Metabolic stability in dog liver microsomes assessed as compound remaining after 30 mins; format: ADME, Canis lupus familiaris, Microsome; details: read-out: Stability

T2 sequence (P08684 whole entry): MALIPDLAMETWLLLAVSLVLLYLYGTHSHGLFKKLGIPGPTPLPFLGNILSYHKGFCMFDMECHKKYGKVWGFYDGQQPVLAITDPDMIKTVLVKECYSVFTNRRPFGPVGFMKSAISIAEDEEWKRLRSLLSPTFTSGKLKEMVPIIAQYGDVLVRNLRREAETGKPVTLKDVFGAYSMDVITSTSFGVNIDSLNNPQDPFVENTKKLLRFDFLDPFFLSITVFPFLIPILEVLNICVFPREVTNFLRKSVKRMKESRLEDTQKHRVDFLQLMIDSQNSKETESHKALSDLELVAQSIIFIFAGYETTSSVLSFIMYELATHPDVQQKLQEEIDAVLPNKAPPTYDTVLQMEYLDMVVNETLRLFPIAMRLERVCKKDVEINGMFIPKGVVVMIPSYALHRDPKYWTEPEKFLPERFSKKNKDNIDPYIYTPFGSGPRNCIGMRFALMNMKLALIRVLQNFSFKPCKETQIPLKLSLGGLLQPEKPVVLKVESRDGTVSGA
T1 sequence (O75874 2-414 R132C limits assumed): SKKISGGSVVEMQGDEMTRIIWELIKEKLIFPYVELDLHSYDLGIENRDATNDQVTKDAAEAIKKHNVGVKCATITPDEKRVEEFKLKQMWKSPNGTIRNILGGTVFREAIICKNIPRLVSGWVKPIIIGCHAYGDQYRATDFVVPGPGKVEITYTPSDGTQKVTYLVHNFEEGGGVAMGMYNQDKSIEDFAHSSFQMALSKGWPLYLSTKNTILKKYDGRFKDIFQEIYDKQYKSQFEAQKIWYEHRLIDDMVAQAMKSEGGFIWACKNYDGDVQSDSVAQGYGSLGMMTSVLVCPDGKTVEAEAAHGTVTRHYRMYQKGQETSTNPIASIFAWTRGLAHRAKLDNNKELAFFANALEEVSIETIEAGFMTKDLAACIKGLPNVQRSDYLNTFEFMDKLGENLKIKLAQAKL
Chain of alpha1 adrenergic receptor (P35348 whole entry): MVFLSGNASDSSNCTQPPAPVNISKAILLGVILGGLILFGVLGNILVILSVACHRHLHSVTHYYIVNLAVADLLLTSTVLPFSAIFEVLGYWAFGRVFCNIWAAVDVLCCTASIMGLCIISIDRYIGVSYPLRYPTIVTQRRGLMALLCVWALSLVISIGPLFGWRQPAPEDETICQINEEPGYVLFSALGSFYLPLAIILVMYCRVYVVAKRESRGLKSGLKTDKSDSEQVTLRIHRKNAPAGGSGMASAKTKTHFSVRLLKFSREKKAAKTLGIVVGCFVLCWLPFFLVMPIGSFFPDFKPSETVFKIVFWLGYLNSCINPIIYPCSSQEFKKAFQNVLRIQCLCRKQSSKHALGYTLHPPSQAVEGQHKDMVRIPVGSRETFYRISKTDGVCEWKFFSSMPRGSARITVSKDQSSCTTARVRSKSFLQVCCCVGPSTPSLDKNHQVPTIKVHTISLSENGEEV
Chain of Isocitrate dehydrogenase [NADP] cytoplasmic (Homo sapiens, UniProt O75874, R132G) (O75874 2-414 R132G limits assumed): as the sequence (O75874 2-414 R132C limits assumed) above, with C131G counted along it
Chain of Isocitrate dehydrogenase [NADP] cytoplasmic (Homo sapiens, UniProt O75874, R132L) (O75874 2-414 R132L limits assumed): as the sequence (O75874 2-414 R132C limits assumed) above, with C131L counted along it
Chain of ATP-dependent translocase ABCB1 (P08183 whole entry): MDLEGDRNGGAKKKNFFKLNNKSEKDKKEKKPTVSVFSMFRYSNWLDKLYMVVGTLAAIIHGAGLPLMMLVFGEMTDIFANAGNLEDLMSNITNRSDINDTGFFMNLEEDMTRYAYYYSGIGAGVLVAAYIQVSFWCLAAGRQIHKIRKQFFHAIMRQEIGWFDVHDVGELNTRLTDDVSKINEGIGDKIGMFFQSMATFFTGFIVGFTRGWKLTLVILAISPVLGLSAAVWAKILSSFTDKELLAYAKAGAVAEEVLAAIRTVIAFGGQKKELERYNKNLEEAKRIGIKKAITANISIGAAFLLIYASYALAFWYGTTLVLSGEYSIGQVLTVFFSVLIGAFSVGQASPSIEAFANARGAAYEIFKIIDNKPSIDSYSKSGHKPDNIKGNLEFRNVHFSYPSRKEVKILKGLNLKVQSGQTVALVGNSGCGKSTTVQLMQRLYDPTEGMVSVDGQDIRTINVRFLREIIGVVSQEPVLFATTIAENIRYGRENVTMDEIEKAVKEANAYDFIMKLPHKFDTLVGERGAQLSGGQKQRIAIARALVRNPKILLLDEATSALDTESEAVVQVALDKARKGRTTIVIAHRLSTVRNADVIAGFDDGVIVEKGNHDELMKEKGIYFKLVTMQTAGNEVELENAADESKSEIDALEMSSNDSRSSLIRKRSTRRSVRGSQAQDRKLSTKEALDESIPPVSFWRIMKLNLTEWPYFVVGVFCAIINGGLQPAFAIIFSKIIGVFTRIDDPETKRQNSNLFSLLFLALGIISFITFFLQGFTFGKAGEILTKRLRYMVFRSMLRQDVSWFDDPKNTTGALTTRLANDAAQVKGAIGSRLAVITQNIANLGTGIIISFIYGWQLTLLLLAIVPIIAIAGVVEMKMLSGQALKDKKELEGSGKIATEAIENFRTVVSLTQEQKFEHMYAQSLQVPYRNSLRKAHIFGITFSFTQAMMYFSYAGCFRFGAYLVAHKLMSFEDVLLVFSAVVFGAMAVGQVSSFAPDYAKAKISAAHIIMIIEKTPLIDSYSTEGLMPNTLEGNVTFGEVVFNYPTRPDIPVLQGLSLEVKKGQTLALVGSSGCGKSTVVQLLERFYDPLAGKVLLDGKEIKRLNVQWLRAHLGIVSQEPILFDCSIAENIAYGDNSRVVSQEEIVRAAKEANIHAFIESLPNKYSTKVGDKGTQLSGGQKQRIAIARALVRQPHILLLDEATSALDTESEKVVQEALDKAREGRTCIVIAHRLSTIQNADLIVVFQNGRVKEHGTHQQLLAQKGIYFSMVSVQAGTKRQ
Chain of CYP2D6 (P10635 whole entry): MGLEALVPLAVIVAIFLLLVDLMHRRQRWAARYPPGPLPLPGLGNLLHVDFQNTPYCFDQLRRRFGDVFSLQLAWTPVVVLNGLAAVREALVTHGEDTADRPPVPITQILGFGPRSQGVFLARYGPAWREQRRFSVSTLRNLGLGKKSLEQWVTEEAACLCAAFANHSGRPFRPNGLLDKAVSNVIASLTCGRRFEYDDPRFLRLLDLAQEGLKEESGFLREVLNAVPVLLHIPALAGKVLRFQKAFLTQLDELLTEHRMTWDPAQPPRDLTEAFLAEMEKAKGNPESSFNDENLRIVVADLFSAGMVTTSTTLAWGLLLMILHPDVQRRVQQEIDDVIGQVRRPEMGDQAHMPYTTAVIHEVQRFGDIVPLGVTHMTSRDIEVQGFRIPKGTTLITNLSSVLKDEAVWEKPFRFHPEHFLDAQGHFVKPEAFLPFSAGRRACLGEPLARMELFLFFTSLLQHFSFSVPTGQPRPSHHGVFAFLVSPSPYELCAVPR
Chain of CYP2C9 (P11712 whole entry): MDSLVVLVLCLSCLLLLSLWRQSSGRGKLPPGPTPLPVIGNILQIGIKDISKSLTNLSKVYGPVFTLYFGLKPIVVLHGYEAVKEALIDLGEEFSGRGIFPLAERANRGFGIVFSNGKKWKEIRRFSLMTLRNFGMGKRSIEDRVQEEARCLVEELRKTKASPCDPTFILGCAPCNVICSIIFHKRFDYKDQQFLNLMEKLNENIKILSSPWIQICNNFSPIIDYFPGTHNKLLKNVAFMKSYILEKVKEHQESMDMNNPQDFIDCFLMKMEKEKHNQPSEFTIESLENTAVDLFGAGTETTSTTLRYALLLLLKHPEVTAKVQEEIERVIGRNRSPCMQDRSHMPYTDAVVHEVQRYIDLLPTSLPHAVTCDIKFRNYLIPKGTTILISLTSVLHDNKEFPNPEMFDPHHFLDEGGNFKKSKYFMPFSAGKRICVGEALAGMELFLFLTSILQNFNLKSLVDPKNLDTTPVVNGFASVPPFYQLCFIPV
Chain of Isocitrate dehydrogenase [NADP] cytoplasmic (Homo sapiens, UniProt O75874) (O75874 whole entry): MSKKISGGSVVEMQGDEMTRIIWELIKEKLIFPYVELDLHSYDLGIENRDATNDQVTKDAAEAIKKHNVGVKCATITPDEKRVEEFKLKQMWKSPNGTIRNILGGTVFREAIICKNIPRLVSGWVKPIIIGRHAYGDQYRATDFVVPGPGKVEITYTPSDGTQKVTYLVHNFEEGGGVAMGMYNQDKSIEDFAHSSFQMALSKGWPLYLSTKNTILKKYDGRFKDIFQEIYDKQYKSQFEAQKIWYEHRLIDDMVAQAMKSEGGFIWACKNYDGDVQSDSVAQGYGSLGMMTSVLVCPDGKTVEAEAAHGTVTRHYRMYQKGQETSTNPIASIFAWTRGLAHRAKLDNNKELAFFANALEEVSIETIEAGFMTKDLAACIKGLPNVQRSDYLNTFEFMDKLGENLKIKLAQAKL
Chain of CYP1A2 (P05177 whole entry): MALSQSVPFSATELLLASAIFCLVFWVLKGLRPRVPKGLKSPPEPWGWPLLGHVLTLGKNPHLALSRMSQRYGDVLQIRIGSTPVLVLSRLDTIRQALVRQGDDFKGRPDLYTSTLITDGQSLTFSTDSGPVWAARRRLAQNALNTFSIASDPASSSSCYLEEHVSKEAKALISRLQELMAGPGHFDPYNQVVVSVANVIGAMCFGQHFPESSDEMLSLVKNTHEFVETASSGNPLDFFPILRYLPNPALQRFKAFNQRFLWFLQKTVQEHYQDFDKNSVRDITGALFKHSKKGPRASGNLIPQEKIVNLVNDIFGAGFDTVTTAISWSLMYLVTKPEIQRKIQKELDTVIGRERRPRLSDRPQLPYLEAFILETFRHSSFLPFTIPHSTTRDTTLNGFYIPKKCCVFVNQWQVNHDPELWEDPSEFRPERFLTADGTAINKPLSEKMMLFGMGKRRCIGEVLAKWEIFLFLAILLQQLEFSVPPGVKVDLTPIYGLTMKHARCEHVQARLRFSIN

## COc1nc(N[C@@H](C)c2cc3cc(Cl)ccc3[nH]c2=O)ncc1C#N
[1]
  remaining at 0.5 h: 100 to 108%
[2]
  remaining at 0.5 h: 100 to 106%
[3]
  IC50: 130 nM
[4]
  IC50: 35000 nM
[5]
  IC50: 233 nM
[6]
  IC50: 130 nM
[7]
  remaining at 0.5 h: 94 to 100%
[8]
  IC50: 120 nM
[9]
  IC50: 60 nM
[10]
  Papp: 18 ×10⁻⁶ cm/s
[11]
  Papp A→B: 8.66 ×10⁻⁶ cm/s
[12]
  efflux ratio: 1
[13]
  Papp B→A: 7.97 ×10⁻⁶ cm/s
[14]
  efflux ratio: 0.63
[15]
  Papp A→B: 8.35 ×10⁻⁶ cm/s
[16]
  Papp B→A: 9.93 ×10⁻⁶ cm/s
[17]
  efflux ratio: 1.19
[18]
  Ratio: 1.89
[19]
  fraction unbound: 0.019
[20]
  fraction unbound: 0.0369
[21]
  logD: 2.68
[22]
  CLint scaled: 13.7 mL/min/kg
[23]
  half-life: 2.2 h
[24]
  Cmax: 3.8 µM
[25]
  AUC(0-inf): 22.6 µM·h
[26]
  clearance: 8.6 mL/min/kg
[27]
  half-life: 10 h
[28]
  Cmax: 5.9 µM
[29]
  AUC(0-inf): 107 µM·h
[30]
  fAUC: 2.06 µM·h
[31]
  bioavailability: 130%
[32]
  AUC(0-inf): 3.3 µM·h
[33]
  Drug uptake(free): Dose-dependent effect
[34]
  inhibition in vivo at 25 mg/kg: > 90%
[35]
  fIC50: 46 nM
[36]
  inhibition in vivo at 12.5 mg/kg: > 90%
[37]
  inhibition at 10 µM: 10.2%
[38]
  inhibition at 10 µM: 13.6%
[39]
  inhibition at 10 µM: 22.7%
[40]
  inhibition at 10 µM: 35.4%
[41]
  TDI: Not Active
[42]
  TDI: Not Active
[43]
  TDI: Not Active
[44]
  TDI: Not Active
[45]
  inhibition at 1 h, 1 µM: > 50%
[46]
  remaining at 0.5 h: 94%
